Measurements from ChEMBL document CHEMBL2146457, “Development of 'DFG-out' inhibitors of gatekeeper mutant kinases” (Bioorg Med Chem Lett, 2012).

Columns and labels:
[1] = Cytotoxicity against wild type mouse BA/F3 cells; format: cell-based; settings: BaF3
[2] = Cytotoxicity against mouse BA/F3 cells expressing imatinib resistant Bcr-Abl […] mutant; format: functional, cell-based; settings: BaF3
[3] = Cytotoxicity against mouse BA/F3 cells expressing wild type Bcr-Abl; format: functional, cell-based; settings: BaF3
[4] = AUC in rat at 1 mg/kg, iv; format: ADME, organism-based; parameters: dose 1 mg/kg, route intravenous; settings: plasma
Rattus norvegicus = experiment: Oral bioavailability in rat at 2 mg/kg; format: ADME, organism-based; settings: in vivo
[5] = Clearance in rat at 1 mg/kg, iv; format: ADME, organism-based; parameters: dose 1 mg/kg, route intravenous; settings: in vivo
[6] = Cmax in rat at 2 mg/kg, po; format: ADME, organism-based; parameters: dose 2 mg/kg, route oral; settings: in vivo
[7] = Half life in rat at 2 mg/kg, po; format: ADME, organism-based; parameters: dose 2 mg/kg, route oral; settings: in vivo
[8] = MRT in rat at 1 mg/kg, iv; format: ADME, organism-based; parameters: dose 1 mg/kg, route intravenous; settings: in vivo
[9] = Volume of distribution at steady state in rat at 1 mg/kg, iv; format: ADME, organism-based; parameters: dose 1 mg/kg, route intravenous; settings: in vivo, read-out: Vdss
[10] = Clearance in rat at 2 mg/kg, po; format: ADME, organism-based; parameters: dose 2 mg/kg, route oral; settings: in vivo
[11] = AUC in rat at 2 mg/kg, po; format: ADME, organism-based; parameters: dose 2 mg/kg, route oral; settings: plasma
[12] = Cytotoxicity against mouse parental BA/F3 cells; settings: BaF3
[13] = Cmax in rat at 1 mg/kg, iv; format: ADME, organism-based; parameters: dose 1 mg/kg, route intravenous; settings: in vivo
[14] = MRT in rat at 2 mg/kg, po; format: ADME, organism-based; parameters: dose 2 mg/kg, route oral; settings: in vivo
[15] = Half life in rat at 1 mg/kg, iv; format: ADME, organism-based; parameters: dose 1 mg/kg, route intravenous; settings: in vivo

Row | SMILES | EC50 [1] [nM] | EC50 [2] [nM] | EC50 [3] [nM] | also measured
1 | O=C(Nc1ccc(N2CCNCC2)c(C(F)(F)F)c1)c1cccc(-c2ccc3nc(NC(=O)C4CC4)sc3n2)c1 | 2300 | 2300 | 2310 | –
2 | Nc1nc2ccc(-c3cccc(C(=O)Nc4cccc(C(F)(F)F)c4)c3)nc2s1 | > 10000 | > 10000 | > 10000 | –
3 | CC(=O)Nc1nc2ccc(-c3cccc(C(=O)Nc4cccc(C(F)(F)F)c4)c3)nc2s1 | > 10000 | 3770 | 5000 | –
4 | O=C(Nc1cccc(C(F)(F)F)c1)c1cccc(-c2ccc3nc(NC(=O)C4CC4)sc3n2)c1 | 910 | 960 | 420 | –
5 | O=C(Nc1cccc(C(F)(F)F)c1)c1cccc(-c2ccc3nc(NC(=O)C4CCNCC4)sc3n2)c1 | > 10000 | > 10000 | > 10000 | –
6 | CC(=O)N1CCN(CCC(=O)Nc2nc3ccc(-c4cccc(C(=O)Nc5cccc(C(F)(F)F)c5)c4)nc3s2)CC1 | > 10000 | > 10000 | 5210 | –
7 | O=C(Nc1nc2ccc(-c3cccc(C(=O)Nc4cccc(C(F)(F)F)c4)c3)nc2s1)NC1CCNCC1 | > 10000 | 7180 | 7600 | –
8 | Cc1nc(Nc2nc3ccc(-c4cccc(C(=O)Nc5cccc(C(F)(F)F)c5)c4)nc3s2)cc(N2CCNCC2)n1 | 6740 | 2410 | 1900 | –
9 | O=C(Nc1cccc(C(F)(F)F)c1)c1cccc(-c2ccc3nc(Nc4ccc(S(=O)(=O)N5CCNCC5)cc4)sc3n2)c1 | > 10000 | > 10000 | 6210 | –
10 | CCN1CCN(Cc2ccc(NC(=O)c3cccc(-c4ccc5nc(N)sc5n4)c3)cc2C(F)(F)F)CC1 | > 10000 | > 10000 | > 10000 | –
11 | CCN1CCN(Cc2ccc(NC(=O)c3cccc(-c4ccc5nc(NC(C)=O)sc5n4)c3)cc2C(F)(F)F)CC1 | 4160 | 193 | 139 | –
12 | CCN1CCN(Cc2ccc(NC(=O)c3cccc(-c4ccc5nc(NC(=O)C6CC6)sc5n4)c3)cc2C(F)(F)F)CC1 | 3080 | 156 | – | AUC [4]: 1230 ng·h/mL; F (Rattus norvegicus): 18.8%; clearance [5]: 13.7 mL/min/kg; Cmax [6]: 53.1 ng/mL; half-life [7]: 4.7 h; MRT [8]: 8.1 h; Vd [9]: 6.5 L/kg; CL/F [10]: 74.4 mL/min/kg; AUC [11]: 462 ng·h/mL; EC50 [12]: 3080 nM; Cmax [13]: 292 ng/mL; MRT [14]: 7.7 h; half-life [15]: 5.8 h
13 | CCN1CCN(Cc2ccc(NC(=O)c3cccc(-c4ccc5nc(Nc6ccccn6)sc5n4)c3)cc2C(F)(F)F)CC1 | 3530 | 276 | 146 | –
14 | O=C(Nc1ccc(-n2ccnc2)cc1)c1cccc(-c2ccc3nc(NC(=O)C4CC4)sc3n2)c1 | > 10000 | > 10000 | > 10000 | –
15 | Cc1cn(-c2cc(NC(=O)c3cccc(-c4ccc5nc(NC(=O)C6CC6)sc5n4)c3)cc(C(F)(F)F)c2)cn1 | 1990 | 190 | 380 | AUC [4]: 1850 ng·h/mL; F (Rattus norvegicus): 3.7%; clearance [5]: 9.5 mL/min/kg; Cmax [6]: 32 ng/mL; half-life [7]: 3.7 h; MRT [8]: 3.1 h; Vd [9]: 1.7 L/kg; CL/F [10]: 303 mL/min/kg; AUC [11]: 136 ng·h/mL; Cmax [13]: 672 ng/mL; MRT [14]: 5.3 h; half-life [15]: 2.4 h
16 | CCN1CCN(Cc2ccc(NC(=O)c3ccc(C)c(-c4ccc5nc(NC(=O)C6CC6)sc5n4)c3)cc2C(F)(F)F)CC1 | 1230 | 60 | 1 | –
17 | Cc1cn(-c2cc(NC(=O)c3ccc(C)c(-c4ccc5nc(NC(=O)C6CC6)sc5n4)c3)cc(C(F)(F)F)c2)cn1 | 4670 | 560 | 30 | –
18 | CCN1CCN(Cc2ccc(NC(=O)c3ccc(F)c(-c4ccc5nc(NC(=O)C6CC6)sc5n4)c3)cc2C(F)(F)F)CC1 | > 10000 | 300 | 20 | –
19 | Cc1cn(-c2cc(NC(=O)c3ccc(F)c(-c4ccc5nc(NC(=O)C6CC6)sc5n4)c3)cc(C(F)(F)F)c2)cn1 | > 10000 | 590 | 20 | –
20 | CCN1CCN(Cc2ccc(C(=O)Nc3cccc(-c4ccc5nc(NC(=O)C6CC6)sc5n4)c3)cc2C(F)(F)F)CC1 | > 10000 | 780 | 200 | –
21 | CCN1CCN(Cc2ccc(NC(=O)Nc3cccc(-c4ccc5nc(NC(=O)C6CC6)sc5n4)c3)cc2C(F)(F)F)CC1 | 690 | 13 | 18 | –
22 | Cc1cn(-c2cc(NC(=O)Nc3cccc(-c4ccc5nc(NC(=O)C6CC6)sc5n4)c3)cc(C(F)(F)F)c2)cn1 | > 10000 | 550 | 1240 | –
